Test results from US5476866A, “Isoxazoles” (Roussel Uclaf, priority 1993, dated 1995).

Key:
[1] = Kinetic data: plasma concentrations after oral administration to mice; assay type: in vivo; settings: 30 mg/kg oral; for half-life: mouse, plasma concentrations monitored for 72 hours, read-out: metabolic half-life (converted); for metabolic half-life relative to the known compound: fraction of known compound's half-life (approximately 21.4 hours)
Protocol: A comparison was made between a known compound, namely 5 -cyclopropyl-N-(4-trifluoromethylphenyl)-isoxazole-4-carboxamide and the compounds of the present invention, namely compounds of Examples 5 and 6 above. The compounds were administered orally to mice at doses of 30 mg/kg and plasma concentrations were monitored for 72 hours.

Adjuvant arthritis = Adjuvant arthritis (Test 4); assay type: in vivo, male rats of a Wistar-Lewis strain; settings: 25 mg/kg p.o. once daily for 12 days from day of immunization; vs untreated control
Protocol: Adjuvant arthritis (Test 4) The investigations were carried out by the method of Pearson (Arthrit. Rheum., Vol. 2, (1959) p. 44). The experimental animals used were male rats of a Wistar-Lewis strain having a body weight between 130 to 200 g. The compounds to be tested were administered orally once daily for 12 days, starting on the day of immunization. The animals of a control group received only the vehicle. Each preparation and control group comprised 6 animals. The criterion used to determine activity was the percentage reduction in the increase in paw volume compared to that of the untreated control group.

[2] = system: Delayed-type hypersensitivity rat paw oedema; assay: Delayed-type hypersensitivity rat paw oedema (Test 3); assay type: in vivo, male rats CFHB; settings: daily days 4-6, twice day 7, 24 h after antigen challenge
[3] = system: Delayed-type hypersensitivity mouse paw oedema; assay: Delayed-type hypersensitivity mouse paw oedema (DTH-M) (Test 2); assay type: in vivo, male mice CD-1; settings: daily days 4-6, twice day 7, 24 h after MBSA challenge
Protocol: Delayed-type hypersensitivity mouse paw oedema (DTH-M) (Test 2)
Groups of 8 to 10 male mice CD-1 with a weight range of 25-30 g were sensitized by the subcutaneous injection of 1 mg of methylated bovine serum albumin (MBSA) in 0.2 ml volumes of saline/Freund's complete adjuvant (FCA) emulsion. Negative control groups received injections of saline/FCA emulsion. DTH paw oedema responses were assessed twenty-four hours after the right hind foot pad challenge with 0.1 mg of MBSA in 0.05 ml volumes of saline on day seven after sensitization. Contralateral paws received control saline injections. The test compounds or control vehicles were orally administered daily on days four, five, six and twice on day seven, one hour before and six hours after MBSA challenge.

[4] = system: Reverse Passive Arthus Reaction; assay: Reverse Passive Arthus Reaction (Test 5); assay type: in vivo, male or female Wistar rats; settings: paw volume at 4 h
Protocol: Reverse Passive Arthus Reaction (Test 5)
One hour before challenge, test compounds were administered orally to male or female Wistar rats weighing 120-200 g. After this pre-treatment period, the reaction was induced by a subplantar injection of goat anti-rat serum in the right hind paw. The left hind paw, which served as a control, was injected with saline alone. Paw volumes were determined immediately and four hours after antibody challenge. Doses are given in units of mg/kg p.o.

[5] = system: Carrageenan rat paw oedema; assay: Carrageenan rat paw oedema (Test 1); assay type: in vivo, male rats CFHB; settings: 50 mg/kg p.o.; 1 h before carrageenan; oedema assessed 3 h later
Protocol: Carrageenan rat paw oedema (Test 1)
One hour after the oral administration of the test compounds or control vehicle to groups of 6 to 12 male rats CFHB with a weight range of 160-180 g, 1 mg of carrageenan dissolved in 0.2 ml of saline was injected into the right hind foot pad. Contralateral paws received control saline injections and paw oedema responses were assessed three hours later.

[6] = 50 mg/kg p.o. 1 h before challenge
[7] = 100 mg/kg p.o. 1 h before challenge

SMILES | half-life [1] [h] | Test 4 % inhibition (percentage reduction in the increase in paw volume) (Adjuvant arthritis) [%] | Test 3 % inhibition ([2]; 50 mg/kg p.o.) [%] | Test 2 % inhibition ([3]; 100 mg/kg p.o.) [%] | Test 5 % inhibition [4, 6] [%] | Test 5 % inhibition [4, 7] [%] | Test 1 % inhibition [5] [%] | Test 3 % inhibition ([2]; 10 mg/kg p.o.) [%] | Test 2 % inhibition ([3]; 30 mg/kg p.o.) [%] | metabolic half-life relative to the known compound [1]
O=C(Nc1ccc(C(F)(F)F)cc1)c1cnoc1C1CC1 [5-cyclopropyl-N-(4-trifluoromethylphenyl)-isoxazole-4-carboxamide, reference compound] | ~21.4 |  |  |  |  |  |  |  |  | 
Cc1cc(NC(=O)c2cnoc2C2CC2)ccc1Br [Example 1, 5-cyclopropyl-N-(4-bromo-3-methylphenyl)-isoxazole-4-carboxamide] |  | -16 | 24 | 41 | 42 | 26 | 12 |  |  | 
O=C(Nc1ccc([N+](=O)[O-])cc1)c1cnoc1C1CC1 [Example 2, 5-cyclopropyl-N-(4-nitrophenyl)-isoxazole-4-carboxamide] |  | 92 | 52 | 19 | -9 | 27 | 0 |  |  | 
N#Cc1ccc(NC(=O)c2cnoc2C2CC2)cc1 [Example 3, 5-cyclopropyl-N-(4-cyanophenyl)-isoxazole-4-carboxamide] |  | 90 |  |  | 41 | 36 | 43 | 60 | 43 | 
Cc1cc(NC(=O)c2cnoc2C2CC2)ccc1Cl [Example 4, 5-cyclopropyl-N-(4-chloro-3-methylphenyl)-isoxazole-4-carboxamide] |  | 22 | 32 | 64 | 17 | 28 | 11 |  |  | 
Cc1cc(NC(=O)c2cnoc2C2CC2)ccc1C#N [Example 5, 5-cyclopropyl-N-(4-cyano-3-methylphenyl)-isoxazole-4-carboxamide] | 7.1 | 88 |  |  | 23 | 34 | 18 | 62 | 41 | about one third
Cc1cc(NC(=O)c2cnoc2C2CC2)ccc1C(F)(F)F [Example 6, 5-cyclopropyl-N-(3-methyl-4-trifluoromethylphenyl)-isoxazole-4-carboxamide] | 8.2 | 42 | 57 | 34 | 24 | 38 | 12 |  |  | about one third
